For orientation: CC50 means the concentration at which the toxic effect on the cells reaches its halfway point. The IC50 is the point on the concentration scale where inhibition reaches its midpoint. A word on the MIC: it is the least concentration at which growth counts as inhibited.

Like-named read-outs stand apart in the source and are kept apart here.

For series [1], the system named is hydrogen sulfide production by B. subtilis 168 cells. Put plainly: Hydrogen sulfide generation, lead acetate paper strips. Type of series: cell-based, Bacillus subtilis. The following applies: B. subtilis cell culture, Figure 2F. As for the experimental part:
The generation of hydrogen sulfide in B. subtilis cells was monitored according to the published protocol using lead acetate as a colorimetric sensor [29]. The inner surface of a cell culture flask was equipped above the level of the liquid with a standardized paper strip soaked with 2% aq. Pb(OAc)2. Overnight cultures were diluted with LB (1:50) and incubated at 37 °C under aeration conditions for 16–18 h. The test compounds (MNS1 and NL2) were used at 32 μM; LB without supplements was used as a negative control. Paper strips stained with the formed PbS precipitate were scanned using an AlphaImager gel imaging system (BioTechne, USA, Minneapolis, Minnesota). The results were normalized to the optical density of the culture.
(§1) Figure 2 Determination of the potentiating properties of compounds. Representative growth curves of B. subtilis 168 strain in the presence of 0.1 μg/mL gentamicin (Gm) and potentiators: MNS2 (A), MNS3 (B), MNS4 (C), MNS5 (D) and MNS6 (E). The cells were grown at 37 °C with aeration in a Bioscreen C automated growth assay system. The curves represent the mean values of three independent experiments with an error of <5%. Evaluation of hydrogen sulfide production by B. subtilis 168 cells in the presence of the potentiators studied (F): MNS2 (100 µM), MNS3 (90 µM), MNS4 (60 µM), MNS5 (60 µM) and MNS6 (100 µM). The filter paper strips soaked in 2% lead acetate solution show brown staining with PbS salt as a result of H2S evaporation by the bacterial suspension. The numbers indicate H2S production relative to wild-type cells. TEXT PRINTED IN THE PICTURE: (F) MNS2: 100% | (F) MNS3: >120% | (F) MNS4: >120% | (F) MNS5: <35% | (F) MNS6: <35% DOUBTS OF THE COPYIST ABOUT THIS PICTURE: Panel F: the picture prints no measure for the percentages, so they are given without one. / Panel F: the column "Control" (100%) is left out because it is not a substance.

For series [2], the system named is B. subtilis 168 strain. Put plainly: Gentamicin-potentiating activity, growth curves (Bioscreen C). Type of series: cell-based, Bacillus subtilis. The settings on record: for MIC with Gm (B. subtilis): potentiator concentration in the presence of 0.1 µg Gm (0.1 MIC; MICGm = 1 µg/mL), potentiator varied with an interval of 10 μM. The method, then: We selected the B. subtilis 168 strain as the model micro-organism to determine the potentiating properties of the new compounds. The active center of the proposed target protein, cystathionine γ-lyase, has a conservative structure for a wide range of micro-organisms, including pathogens; thus, B. subtilis can be used as a less toxic model object containing the CGL enzyme for testing. The efficiency of CGL inhibitors was assessed by the standard minimum inhibitory concentration (MIC) assay. The potentiating properties were investigated according to the technique reported previously for NL2 [10]. The MIC of gentamicin for B. subtilis cells is 1 μg/mL, which is consistent with known CLSI breakpoints for the genus Bacillus. […] In addition, we tested the effect of the compounds on the generation of hydrogen sulfide by the B. subtilis cell culture (Figure 2F). […] The latter effect, however, may be attributed to the presence of the sulfur atom in the structure of these inhibitors assuming their possible hydrolysis if not bound to the enzyme in the cellular environment.
(§2) Gentamicin-potentiating activity testing of the compounds in B. subtilis. The growth curves of B. subtilis were obtained with a Bioscreen C automated growth curve analysis system (Oy Growth Curves Ab, Finland, Helsinki). The B. subtilis strain 168 was grown overnight in LB at 37 °C and diluted with fresh medium (1:100) containing the antibiotic and a test compound as specified in the text and figure captions. Aliquots (150 μL) of each mixture were added into plate wells in triplicate and incubated with continuous agitation at 37 °C. The optical density at 600 nm (OD600) was recorded automatically for 24 h. The results were averaged over three replicate experiments to plot the time dependences of bacterial growth.
as §1, with “TEXT PRINTED IN THE PICTURE: (F) MNS2: 100% | (F) MNS3: >120% | (F) MNS4: >120% | (F) MNS5: <35% | (F) MNS6: <35% DOUBTS OF THE COPYIST ABOUT THIS PICTURE: Panel F: the picture prints no measure for the percentages, so they are given without one. / Panel F: the column "Control" (100%) is left out because it is not a substance.” left out

The nature of the next series: MTT test, cytotoxicity. Format: cell-based. The following applies: human, HEK293T cells; MTT test, 72 h; concentration required to inhibit 50% cell culture growth; read-out: CC50 of compounds (HEK273T). The method, then:
(§3) HEK293T cells were grown in the DMEM:F12 (2:1) medium supplemented with 10% FBS (BioSera, Cholet, France), 2 mM L-glutamine, 100 U/mL penicillin and 100 μg/mL streptomycin in the presence of 5% CO2 at 37 °C. Cells were re-seeded every three days at a ratio of 1:3 or 1:5.
(§4) Stock solutions were diluted in DMSO (BioReagent of molecular biology grade, Sigma, St. Louis, MO, USA), and the final DMSO concentration was 1%. After 24 h (30–40% monolayer), the solutions of the studied compounds diluted at different concentrations were introduced to the culture medium. After the incubation at 37 °C in 5% CO2 for 72 h, a freshly prepared solution of thiazolyl blue tetrazolium bromide at a final concentration of 0.4 mg/mL was added to each well of the plate. Incubation was performed at +37 °C for 2 h. The medium containing unreacted MTT was removed via aspiration. The formed formazan dye was dissolved in 100 µL of isopropanol added to each well of the plate. The result of the analysis was evaluated using a Tecan Spark spectrophotometer (absorbance at 544 nm).
A general note: Formazan colour is commonly taken as a measure of viable cells.

A further series relates to HEK273T. Nature of the series: MTT test, cytotoxicity. Format: cell-based. The settings on record: in words, conclusions. The method, then:
as §3, §4

For series [3], the system named is B. subtilis 168 strain. Put plainly: Kanamycin A-potentiating activity, growth curves. Format: cell-based, Bacillus subtilis. The settings on record: potentiator concentration in the presence of 0.25 µg Km (MICKm = 2 µg/mL); potentiator varied with an interval of 10 μM. The method, then: The potentiating properties and minimum inhibitory concentration (MIC) were assessed similarly to the testing with gentamicin, and additionally, the previously reported MNS1 was used for comparison (Figure 3). The MIC of kanamycin A for B. subtilis cells is 2 μg/mL. […] A lower cytotoxic effect on HEK273T culture (Table 1) allows us to conclude that MNS3 is the hit compound in the series (the experimental curves for CC50 estimation via the MTT test are given in the Supplementary Information File).
as §2
Figure 3 Determination of the potentiating properties of compounds.

Series [4] concerns bCSE. The arrangement: method as in PMID 34112687, PMID 37110802, doi:10.1016/j.mencom.2024.02.030, PMID 39970094, PMID 38771206. The following applies: Figure 1; cited from earlier work.
Series [5] relates to hCSE. Details: method as in PMID 34112687, PMID 37110802, doi:10.1016/j.mencom.2024.02.030, PMID 39970094, PMID 38771206. The following applies: Figure 1; cited from earlier work.
In series [6] the target is bCSE. The following applies: cited from earlier work.
For another series, the system named is B. subtilis cells. Put plainly: MIC of the antibiotic alone, microdilution method (CLSI). Type of series: cell-based, Bacillus subtilis. As for the experimental part:
Standardized MIC was determined using the microdilution method, as recommended by the Clinical and Laboratory Standards Institute (CLSI). […] The B. subtilis inoculate (100 μL) contained 1.0 × 10^6 CFU/mL. The minimum inhibitory concentration (MIC) was defined as the lowest antibiotic concentration that prevented turbidity in the inoculate following incubation at 37 °C for a duration of 24 h. Gentamycin was used at 0.1 μg/mL (10% of MIC) in further experiments.
On the technique in general: Broth dilution looks for growth in wells or tubes with falling amounts of substance.

The test system of series [7] is B. subtilis 168 strain. Details: method as in PMID 39970094. The following applies: parent MNS1, in the presence of 0.1 µg Gm; previously known data for gentamicin potentiation; cited from earlier work.
For series [8], the target named is hCSE. Details: method as in PMID 34112687, PMID 37110802, doi:10.1016/j.mencom.2024.02.030, PMID 39970094, PMID 38771206. The following applies: Figure 1; cited from earlier work. This is another data set of the same source.

Regarding `Nc1cc(Cn2ncc3ccc(Br)cc32)sc1C(=O)[O-].[K+]` [MNS3, Potassium 3-Amino-5-((6-bromo-1H-indazol-1-yl)methyl)thiophene-2-carboxylate], the “rate of hydrogen sulfide generation compared to the control group of cells” value (shortened to “rate … compared to the control group of cells”) in [1] was “enhanced”. Also, the “MIC with Gm (B. subtilis)” value in the series on B. subtilis 168 strain [2] was around 90 µM. In addition, the CC50 at 72 h in “MTT test, cytotoxicity” was determined as 190 µM. For the same compound, the “cytotoxicity in HEK273T” value in the series on HEK273T was “moderate cytotoxicity”. In addition, the “MIC with Km (B. subtilis)” value with B. subtilis 168 strain [3] is 90 µM.

For `O=C(O)c1cc(Cn2ccc3ccc(-c4cc5cccc(Cl)c5s4)cc32)n[nH]1` [NL3], the values for the half-maximal inhibitory concentration (IC50) in the series with bCSE [4] and in the series on hCSE [5] were 0.7 ± 0.2 µM and 3.4 ± 0.8 µM, respectively.

Take `Cc1oc(Cn2ccc3ccc(Br)cc32)cc1C(=O)O` [NL2]: the half-maximal inhibitory concentration (IC50) in the series on bCSE [4] was 1.8 ± 0.5 µM; in the series with hCSE [5], 25.3 ± 2.6 µM. The Kd on bCSE [6] (Figure 1, marked "our data", read-out: KD (bCSE)) was 1.1 ± 0.3 µM.

In the case of `O=C(O)c1ccc(Cn2ccc3ccc(Br)cc32)cc1` [3h], at bCSE [6] (Figure 1, read-out: KD (bCSE)), the Kd was 0.8 ± 0.3 µM.

In the case of `CNC(C)C1CCC(N)C(OC2C(N)CC(N)C(OC3OCC(C)(O)C(NC)C3O)C2O)O1` (stereo not shown) [gentamicin], the MIC in the series on B. subtilis cells (Bacillus subtilis, 37 °C, 24 h, read-out: MIC of gentamicin for B. subtilis cells) is 1 µg/mL.

Take `Nc1csc(Cn2ccc3ccc(Br)cc32)c1` [MNS1]: the “MIC with Gm (B. subtilis)” value in the series with B. subtilis 168 strain [7] is around 50 µM. For the same compound, the Kd at bCSE [6] (Figure 1, read-out: KD (bCSE)) is 0.59 ± 0.04 µM; on bCSE [6] (introduction, read-out: binding constant with CGL) it was around 0.6 µM; at hCSE [8], 11.6 ± 0.1 µM. Moreover, the CC50 at 72 h in “MTT test, cytotoxicity” came to 30 µM. In the series with B. subtilis 168 strain [3], the “MIC with Km (B. subtilis)” value was determined as 100 µM.

In the case of `Cc1oc(Cn2ncc3ccc(Br)cc32)cc1C(=O)O` [MNS5, 5-((6-Bromo-1H-indazol-1-yl)methyl)-2-methylfuran-3-carboxylic Acid], the “rate … compared to the control group of cells” value in [1] is “significantly reduced”. Moreover, in the series with B. subtilis 168 strain [2], the “MIC with Gm (B. subtilis)” value is around 60 µM. For the same compound, the CC50 at 72 h in the series “MTT test, cytotoxicity” was 250 µM. For the same compound, the “MIC with Km (B. subtilis)” value in the series on B. subtilis 168 strain [3] was determined as 100 µM.

With `O=C(O)CNC(=O)Cn1ccc2ccc(Br)cc21` [NL1], the IC50 in the series on bCSE [4] is 5.8 ± 2.7 µM; with hCSE [5] it was 29.2 ± 2 µM.

On to `Nc1cc(Cn2ccc3ccc(Br)cc32)sc1C(=O)[O-].[K+]` [MNS2, Potassium 3-Amino-5-((6-bromo-1H-indol-1-yl)methyl)thiophene-2-carboxylate], for which, in series [1], the “rate … compared to the control group of cells” value is listed as “enhanced”. In addition, the “inhibition of B. subtilis growth in combinations with gentamicin” value in the series on B. subtilis 168 strain [2] (concentration range from 50 to 100 µM) is “failed to inhibit”. Moreover, in “MTT test, cytotoxicity”, the half-maximal cytotoxic concentration (CC50) at 72 h was 25 µM.

With `Cc1oc(Cn2cc3ccc(Br)cc3n2)cc1C(=O)O` [MNS6, 5-((6-Bromo-2H-indazol-2-yl)methyl)-2-methylfuran-3-Carboxylic Acid], in series [1], the “rate … compared to the control group of cells” value is “significantly reduced”. Further, in the series “MTT test, cytotoxicity”, the half-maximal cytotoxic concentration (CC50) at 72 h is 260 µM.

For the compound `Nc1cc(Cn2cc3ccc(Br)cc3n2)sc1C(=O)[O-].[K+]` [MNS4, Potassium 3-Amino-5-((6-bromo-2H-indazol-2-yl)methyl)thiophene-2-carboxylate], the “MIC with Gm (B. subtilis)” value with B. subtilis 168 strain [2] was around 60 µM. Besides, the CC50 at 72 h in the series “MTT test, cytotoxicity” is 87 µM. In addition, the “cytotoxicity in HEK273T” value with HEK273T is “moderate cytotoxicity”. The “MIC with Km (B. subtilis)” value in the series on B. subtilis 168 strain [3] is 70 µM.

Regarding kanamycin A, in the series on B. subtilis cells, the “MIC of kanamycin A for B. subtilis cells” value came to 2 µg/mL.
